From patent publication US11472805B2, “Tricyclic compounds and their use as phosphodiesterase inhibitors” (Pfizer Inc., priority 2015, dated 2022)
Like-named read-outs stand apart in the source and are kept apart here.

Tests used:
Type in all cases: biochemical
Human PDE4A3 = Human PDE4A3 (Homo sapiens (Human), UniProt P27815); experiment: PDE4A3 Scintillation Proximity Assay (SPA), inhibition of enzyme activity; details: read-out: Human PDE4A FL
Outline: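 Recombinant human PDE4A3 expressed in insect cells, purified via Ni-NTA, anti-FLAG and size exclusion. SPA run 30 min at 25 °C in 50 mM Tris pH 7.5, 1.3 mM MgCl2, 0.01% Brij with 1 μM cAMP (20 nM 3H-cAMP), […], ~20% substrate conversion; stopped with yttrium silicate beads.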

Human PDE4B1 = Human PDE4B1 (Homo sapiens (Human), UniProt Q07343, S133E/S654A/S659A/S661A); experiment: PDE4B1 Scintillation Proximity Assay (SPA), inhibition of enzyme activity; details: read-out: Human PDE4B FL
Outline: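 His-tagged enzyme from baculovirus-infected insect cells, Ni-NTA purified. SPA with 1 μM cAMP (20 nM 3H-cAMP tracer) in 50 mM Tris pH 7.5, 1.3 mM MgCl2, 0.01% Brij, […] PDE4B enzyme for ~20% substrate conversion; 30 min at 25 °C, stopped with yttrium silicate beads, read after 8 h settling.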

Human PDE4C1 = Human PDE4C1 (Homo sapiens (Human), UniProt Q08493); experiment: PDE4C1 Scintillation Proximity Assay (SPA), inhibition of enzyme activity; details: read-out: Human PDE4C FL
Protocol: The PDE4A, PDE4B, PDE4C and PDE4D binding affinity for the compounds of the present invention was determined utilizing the following biological assay(s):
The recombinant Bacmid was isolated and used to transfect insect cells to generate a viral stock. To generate cell paste for purification, insect cells were infected with the virus stock and cells were harvested 72 hours after infection. Insect cell paste was lysed and after centrifugation, the supernatant was batch bound to Ni-NTA agarose (GE Healthcare) and eluted with 250 mM imidazole. This eluate was diluted with FLAG buffer (50 mM Tris HCL pH 7.5, 100 mM NaCl, 5% Glycerol, 1 mM TCEP with protease inhibitors) and batch bound to ant-FLAG M2 agarose (Sigma) overnight at 4° C. The agarose was packed into a column, washed with buffer and eluted with buffer containing elute using 250 ug/ml Flag-peptide. Fractions were analyzed using SDS-PAGE Coomassie blue staining and pooled based on purity. Pooled fractions were chromatographed on a S200 120 ml column (GE Healthcare) in 50 mM Tris HCL pH 7.5, 150 mM NaCl, 10% Glycerol, 2 mM TCEP with protease inhibitors. PDE4C1 fractions were analyzed by SDS-PAGE Coomassie blue staining, pooled based on purity, dialyzed against 50 mM Tris HCL pH 7.5, 100 mM NaCl, 20% Glycerol, 2 mM TCEP, frozen and stored at −80° C.
The PDE4A3, PDE4B1, PDE4C1 and PDE4D3 assays use the Scintillation Proximity Assay (SPA) technology to measure the inhibition of human recombinant PDE4A1, PDE4B3, PDE4C1, and PDE4D3 enzyme activity by compounds in vitro. The PDE4A1, PDE4B3, PDE4C1, and PDE4D3 assays are run in parallel using identical parameters, except for the concentration of enzyme ([…]). The assays are performed in a 384-well format with 50 uL assay buffer (50 mM TRIS pH7.5; 1.3 mM MgCl2; 0.01% Brij) containing enough PDE4A3, PDE4B1, PDE4C1, and PDE4D to convert ˜20% of substrate (1 μM cAMP consisting of 20 nM 3H-cAMP+[…] cold cAMP) and a range of inhibitors. Reactions are incubated for 30 min at 25° C. The addition of 20 uL of 8 mg/ml yitrium silicate SPA beads (Perkin Elmer) stops the reaction. The plates are sealed (TopSeal, Perkin Elmer) and the beads are allowed to settle for 8 hrs, after which they are read on the Trilux Microbeta overnight.

human PDE4D3 = human PDE4D3 (Homo sapiens (Human), UniProt Q08499); experiment: PDE4D3 Scintillation Proximity Assay (SPA), inhibition of enzyme activity; details: read-out: Human PDE4D FL
Outline: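 His-tagged human PDE4D3 (aa 50–672), expressed in insect cells, hydrolysed 1 μM cAMP (3H tracer plus cold) for 30 min at 25° C in 50 mM Tris pH 7.5, 1.3 mM MgCl2 and 0.01% Brij. Enzyme level was set for ~20% conversion. Product was read by yttrium silicate SPA beads after 8 h settling.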

[1] = Table 9, geometric mean of 2-9 determinations unless otherwise indicated
[2] = Table 10, geometric mean of 2-9 determinations unless otherwise indicated

Sequence of Human PDE4A3 (P27815 other isoform, or with tags, fused parts or gaps): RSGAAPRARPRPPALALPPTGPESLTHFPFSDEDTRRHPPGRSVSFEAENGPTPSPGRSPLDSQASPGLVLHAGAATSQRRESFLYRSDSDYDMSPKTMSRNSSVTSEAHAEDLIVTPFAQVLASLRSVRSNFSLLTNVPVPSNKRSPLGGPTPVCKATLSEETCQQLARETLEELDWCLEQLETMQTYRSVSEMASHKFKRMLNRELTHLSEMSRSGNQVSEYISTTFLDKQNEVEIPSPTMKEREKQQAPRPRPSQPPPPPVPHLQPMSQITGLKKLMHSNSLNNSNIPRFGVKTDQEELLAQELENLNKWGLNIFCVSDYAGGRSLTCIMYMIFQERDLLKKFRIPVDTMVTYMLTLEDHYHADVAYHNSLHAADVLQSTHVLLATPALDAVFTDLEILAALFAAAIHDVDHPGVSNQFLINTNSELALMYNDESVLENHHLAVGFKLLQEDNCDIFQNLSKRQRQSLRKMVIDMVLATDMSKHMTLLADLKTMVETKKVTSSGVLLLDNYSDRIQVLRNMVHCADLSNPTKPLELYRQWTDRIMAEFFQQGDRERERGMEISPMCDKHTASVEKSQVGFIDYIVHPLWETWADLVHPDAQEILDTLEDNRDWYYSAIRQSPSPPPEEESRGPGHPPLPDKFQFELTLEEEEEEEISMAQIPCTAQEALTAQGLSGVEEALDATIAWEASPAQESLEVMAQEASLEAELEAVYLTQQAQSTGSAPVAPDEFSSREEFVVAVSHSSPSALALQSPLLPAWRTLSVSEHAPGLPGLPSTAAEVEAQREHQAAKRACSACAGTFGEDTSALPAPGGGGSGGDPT
Sequence of Human PDE4C1 (Q08493 2-712): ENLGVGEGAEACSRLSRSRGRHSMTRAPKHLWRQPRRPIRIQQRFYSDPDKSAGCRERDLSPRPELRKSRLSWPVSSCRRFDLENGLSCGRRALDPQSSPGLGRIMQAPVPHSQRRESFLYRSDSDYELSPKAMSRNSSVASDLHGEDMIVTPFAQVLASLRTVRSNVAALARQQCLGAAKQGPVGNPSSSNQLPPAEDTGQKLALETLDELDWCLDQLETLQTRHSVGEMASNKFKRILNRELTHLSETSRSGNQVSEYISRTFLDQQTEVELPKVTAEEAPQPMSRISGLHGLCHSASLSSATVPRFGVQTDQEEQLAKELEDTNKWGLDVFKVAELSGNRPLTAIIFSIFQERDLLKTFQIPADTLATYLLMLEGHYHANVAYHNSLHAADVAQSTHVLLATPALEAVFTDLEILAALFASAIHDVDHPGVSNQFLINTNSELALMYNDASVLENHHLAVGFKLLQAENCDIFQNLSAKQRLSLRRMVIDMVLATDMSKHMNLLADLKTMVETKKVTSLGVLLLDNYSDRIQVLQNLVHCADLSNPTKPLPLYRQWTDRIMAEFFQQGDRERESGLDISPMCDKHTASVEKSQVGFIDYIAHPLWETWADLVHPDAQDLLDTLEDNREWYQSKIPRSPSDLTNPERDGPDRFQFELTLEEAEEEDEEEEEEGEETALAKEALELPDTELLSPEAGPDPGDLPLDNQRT
Sequence of Human PDE4B1 (Q07343 122-736 S133E/S654A/S659A/S661A): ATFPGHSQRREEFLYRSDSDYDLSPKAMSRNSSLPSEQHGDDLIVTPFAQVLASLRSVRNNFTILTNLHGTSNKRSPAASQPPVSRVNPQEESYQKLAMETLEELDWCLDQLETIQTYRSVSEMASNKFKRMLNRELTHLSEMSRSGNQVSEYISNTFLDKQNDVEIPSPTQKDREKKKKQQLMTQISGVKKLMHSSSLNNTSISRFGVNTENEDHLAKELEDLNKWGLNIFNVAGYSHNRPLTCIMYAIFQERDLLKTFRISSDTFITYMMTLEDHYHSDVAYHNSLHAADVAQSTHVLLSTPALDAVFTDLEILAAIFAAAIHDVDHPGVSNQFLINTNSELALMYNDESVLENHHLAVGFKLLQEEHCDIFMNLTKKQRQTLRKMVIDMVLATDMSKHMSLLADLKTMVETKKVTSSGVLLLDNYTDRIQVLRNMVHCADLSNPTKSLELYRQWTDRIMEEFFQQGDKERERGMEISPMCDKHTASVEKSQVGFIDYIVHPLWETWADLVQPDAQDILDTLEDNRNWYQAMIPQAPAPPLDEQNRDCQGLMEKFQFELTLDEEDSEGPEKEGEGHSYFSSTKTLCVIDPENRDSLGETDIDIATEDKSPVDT
Sequence of human PDE4D3 (Q08499 186-808): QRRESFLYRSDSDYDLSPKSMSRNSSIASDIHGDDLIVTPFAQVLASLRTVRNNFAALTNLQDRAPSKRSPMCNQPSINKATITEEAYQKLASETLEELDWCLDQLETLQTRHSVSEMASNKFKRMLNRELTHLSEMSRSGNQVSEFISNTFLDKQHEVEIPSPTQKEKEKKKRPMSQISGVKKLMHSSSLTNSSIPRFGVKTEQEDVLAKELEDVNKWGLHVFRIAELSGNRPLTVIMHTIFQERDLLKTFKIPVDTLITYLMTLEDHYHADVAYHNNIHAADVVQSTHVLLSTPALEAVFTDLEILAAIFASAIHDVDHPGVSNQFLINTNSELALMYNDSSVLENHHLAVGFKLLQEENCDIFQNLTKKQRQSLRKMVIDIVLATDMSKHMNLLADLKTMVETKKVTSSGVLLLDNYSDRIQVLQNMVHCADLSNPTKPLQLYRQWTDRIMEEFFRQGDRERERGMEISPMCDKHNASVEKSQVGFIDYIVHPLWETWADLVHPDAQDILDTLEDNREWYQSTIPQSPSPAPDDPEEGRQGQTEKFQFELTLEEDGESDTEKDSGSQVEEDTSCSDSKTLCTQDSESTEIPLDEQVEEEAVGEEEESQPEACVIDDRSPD

Row | IC50 (Human PDE4A3; [1]) [nM] | IC50 (Human PDE4B1; [1]) [nM] | IC50 (Human PDE4C1; [1]) [nM] | IC50 (human PDE4D3; [1]) [nM] | IC50 (Human PDE4A3; [2]) [nM] | IC50 (Human PDE4B1; [2]) [nM] | IC50 (Human PDE4C1; [2]) [nM] | IC50 (human PDE4D3; [2]) [nM] | Compound
1 | 35.1 | 39 | 60.3 | 1640 |  |  |  |  | N#Cc1ccc(-c2c3n(c4cccnc24)CC2CCCN2C3=O)cc1 (centres unmarked) [Example 61, 4-(11-Oxo-6a,7,8,9-tetrahydro-6H,11H-pyrido[2′,3′:4,5]pyrrolo[1,2-a]pyrrolo[1,2-d]pyrazin-12-yl)benzonitrile]
2 | 5.59 | 10.9 | 21 | 569 |  |  |  |  | O=C1c2c(-c3ccc(F)cc3F)c3ncccc3n2CCN1C1CC1 [Example 38, 8-Cyclopropyl-10-(2,4-difluorophenyl)-7,8-dihydropyrido[2′,3′:4,5]pyrrolo[1,2-a]pyrazin-9(6H)-one]
3 |  |  |  |  | 44 | 66.2 | 106 | 42.8 | CCNC(=O)N1CCn2c(c(-c3ccc(Cl)cc3)c3ncccc32)C1=O [Example 80, 10-(4-Chlorophenyl)-N-ethyl-9-oxo-6,7-dihydropyrido[2′,3′:4,5]pyrrolo[1,2-a]pyrazine-8(9H)-carboxamide]
4 | 1 | 0.84 | 5.94 | 56.2 |  |  |  |  | O=C1c2c(-c3cc(F)c(Cl)cc3F)c3c(n2CCN1C1CC1)CCCO3 [Example 77, 10-(4-Chloro-2,5-difluorophenyl)-8-cyclopropyl-3,4,7,8-tetrahydro-2H-pyrano[2′,3′:4,5]pyrrolo[1,2-a]pyrazin-9(6H)-one]
5 | 27.6 | 43.5 | 52.5 | 1070 |  |  |  |  | N#Cc1ccc(-c2c3n(c4scnc24)CCN(C2CC2)C3=O)cn1 [Example 71, 5-(7-Cyclopropyl-8-oxo-5,6,7,8-tetrahydro[1,3]thiazolo[4′,5′:4,5]pyrrolo[1,2-a]pyrazin-9-yl)pyridine-2-carbonitrile]
6 | 2.29 | 4.04 | 6.98 | 203 |  |  |  |  | O=C1c2c(-c3cc(F)ccc3F)c3ncccc3n2CCN1C1CC1 [Example 46, 8-Cyclopropyl-10-(2,5-difluorophenyl)-7,8-dihydropyrido[2′,3′:4,5]pyrrolo[1,2-a]pyrazin-9(6H)-one]
7 | 5.42 | 6.87 | 16.7 | 460 |  |  |  |  | Cc1ccc(-c2c3ncccc3n3ccn(C4CC4)c(=O)c23)c(C)c1 [Example 66, 8-Cyclopropyl-10-(2,4-dimethyl-phenyl)pyrido[2′,3′:4,5]pyrrolo[1,2-a]pyrazin-9(8H)-one]
8 | 5.65 | 6.7 | 13.8 | 481 |  |  |  |  | Cc1ccc(-c2c3n(c4cccnc24)CCN(C2CC2)C3=O)c(C)c1 [Example 65, 8-Cyclopropyl-10-(2,4-dimethylphenyl)-7,8-dihydropyrido[2′,3′:4,5]pyrrolo[1,2-a]pyrazin-9(6H)-one]
9 |  |  |  |  | 24000 | > 24700 | 6970 | > 30000 | Cn1ncc(Cl)c1-c1c2n(c3cccnc13)CCN(C1CC1)C2=O [Example 93, 10-(4-Chloro-1-methyl-1H-pyrazol-5-yl)-8-cyclopropyl-7,8-dihydropyrido[2′,3′:4,5]pyrrolo[1,2-a]pyrazin-9(6H)-one]
10 |  |  |  |  | 254 | 437 | 4960 | 724 | CN(C)S(=O)(=O)c1cccc(-c2c3n(c4cccnc24)CCN(C2CC2)C3=O)c1 [Example 85, 3-(8-Cyclopropyl-9-oxo-6,7,8,9-tetrahydropyrido[2′,3′:4,5]pyrrolo[1,2-a]pyrazin-10-yl)-N,N-dimethylbenzenesulfonamide]
11 | 2 | 1.14 | 2.88 | 142 |  |  |  |  | O=C1c2c(-c3ccc(Cl)cc3F)c3ncccc3n2CCN1C1CC1 [Example 47, 10-(4-Chloro-2-fluorophenyl)-8-cyclopropyl-7,8-dihydropyrido[2′,3′:4,5]pyrrolo[1,2-a]pyrazin-9(6H)-one]

The next lines start with the compound.

Row | Compound | IC50 (Human PDE4A3; [1]) [nM] | IC50 (Human PDE4B1; [1]) [nM] | IC50 (Human PDE4C1; [1]) [nM] | IC50 (human PDE4D3; [1]) [nM] | IC50 (Human PDE4A3; [2]) [nM] | IC50 (Human PDE4B1; [2]) [nM] | IC50 (Human PDE4C1; [2]) [nM] | IC50 (human PDE4D3; [2]) [nM]
12 | O=C1c2c(-c3ccc(F)c(Cl)c3)c3ncccc3n2CCN1C1CC1 [Example 36, 10-(3-Chloro-4-fluorophenyl)-8-cyclopropyl-7,8-dihydropyrido[2′,3′:4,5]pyrrolo[1,2-a]pyrazin-9(6H)-one] | < 0.67 | < 1.1 | 3.48 | 28.1 |  |  |  | 
13 | O=C1c2c(-c3ccc4c(c3)CCO4)c3ncccc3n2CCN1C1CC1 [Example 35, 8-Cyclopropyl-10-(2,3-dihydro-1-benzofuran-5-yl)-7,8-dihydropyrido[2′,3′:4,5]pyrrolo[1,2-a]pyrazin-9(6H)-one] | 2.08 | 4.15 | 5.52 | 141 |  |  |  | 
14 | O=C1c2c(-c3ccc(Cl)cc3)c3ncccc3n2CCN1C1CC1 [Example 2, 10-(4-Chlorophenyl)-8-cyclopropyl-7,8-dihydropyrido[2′,3′:4,5]pyrrolo[1,2-a]pyrazin-9(6H)-one] | < 0.99 | < 0.42 | 4 | 75.3 |  |  |  | 
15 | Cc1cc(-c2c3n(c4cccnc24)CCN(C2CC2)C3=O)ccc1F [Example 37, 8-Cyclopropyl-10-(4-fluoro-3-methylphenyl)-7,8-dihydropyrido[2′,3′:4,5]pyrrolo[1,2-a]pyrazin-9(6H)-one] | 2.52 | 3.76 | 3.3 | 98.7 |  |  |  | 
16 | O=C1c2c(-c3ccc(Cl)cc3)c3cccnc3n2CCN1C1CC1 [Example 9, 5-(4-Chlorophenyl)-7-cyclopropyl-8,9-dihydropyrido[3′,2′: 4,5]pyrrolo[1,2-a]pyrazin-6(7H)-one] | 129 | 298 | 127 | 8190 |  |  |  | 
17 | O=C1c2c(-c3ccc(Cl)c(F)c3)c3ncncc3n2CCN1C1CC1 [Example 7, 10-(4-Chloro-3-fluorophenyl)-8-cyclopropyl-7,8-dihydropyrazino[1′,2′: 1,5]pyrrolo[3,2-d]pyrimidin-9(6H)-one] | 14.3 | 2.53 | 71.4 | 159 |  |  |  | 
18 | O=C1c2c(-c3ccc(Cl)cc3)c3ncncc3n2CCN1C1CC1 [Example 25, 10-(4-Chlorophenyl)-8-cyclopropyl-7,8-dihydropyrazino[1′,2′:1,5]pyrrolo[3,2-d]pyrimidin-9(6H)-one] | 25 | 48.2 | 100 | 1780 |  |  |  | 
19 | O=C1c2c(-c3ccc(Cl)cc3)c3ccccc3n2CCN1C1CC1 [Example 12, 10-(4-Chlorophenyl)-2-cyclopropyl-3,4-dihydropyrazino[1,2-a]indol-1(2H)-one] | 12 | 19.2 | 23.5 | 3090 |  |  |  | 
20 | O=C1c2c(-c3ccc(Cl)cc3)c3ncccc3n2CCN1c1ncccn1 [Example 1, 10-(4-Chlorophenyl)-8-(pyrimidin-2-yl)-7,8-dihydropyrido[2′,3′:4,5]pyrrolo[1,2-a]pyrazin-9(6H)-one] | 18.8 | 16.1 | 182 | 1230 |  |  |  | 
